Where two headings read alike, the source gives them in different places.
Key:
mast cells [1] = assay: Histamine release from rat isolated peritoneal mast cells and its inhibition; format: cell-based, male Wistar rat; conditions: for Histamine Release (%) / inhibition at 5 µM: Sanguinarine 5 µM
Method: In exemplifying the invention, mast cells were isolated from the peritoneal fluid of male Wistar rat as described in Sugiyama, K. (1971) Japan J. Pharmacol. 21, 209-226. The mast cells were suspended in a phosphate buffered saline solution consisting of 154 mM sodium chloride, 2.7mM potassium chloride, 0.9 mM calcium chloride, 6.7 mM KH₂PO₄-Na₂HPO₄, (pH 7.3), and 0.01% bovine serum albumin obtained from Sigma.
For the determination of histamine release and its inhibition by sangainarine., mast cells at a cell density of 10⁵ cells/ml suspended in 0.5 ml of phosphate-buffered saline, were incubated at 37°C for 10 minutes with histamine releasers, more about which is stated below. Sanguinarine was added 5 minutes before the specific histamine releaser. After the action was terminated by the addition of 1.5 ml of ice-cold phosphate-buffered saline solution, the samples were centrifuged at 2,000 rpm for 15 minutes. The histamine in the supernatants and precipitates was determined according to the method of Shore, P.A., Burkhalter, A. and Cohn N.H. (1959) J. Pharmacol. Exp Ther. 127, 182-186. Release of histamine was expressed as a percentage of the total cell content. Percentages of inhibition by sanguinarine were measured according to the following equation: [formula] The sanguinarine chloride was provided from Vipont Laboratories Inc. and is manufactured in the manner disclosed above.
Histidine-rich polypetide fraction A, known as HRP(F-A) was purified from human saliva in accordance with the procedure of Sugiyama, K., Suzuki, Y and Furuta, H (1985) Life Sciences. 37, 475-480. The comparison was carried out with known histamine releasers, namely, 48/80; Concanavalin A; calcium-ionophore A23187. These releasers may be obtained from Sigma Co.
With regard to Figure 1, inhibition by sanguinarine of histamine release induced by compound 48/80 is shown. The mast cells were incubated at 37°C for 10 minutes with and without compound 48/80 in the presence of sanguinarine in varying concentrations. (●) Sanguinarine with compound 48/80 (0.5 µ g/ml), (0) Sanguinarine without compound 48/80.

mast cells [2] = assay: Literature (Pearce et al. 1979): inhibition of histamine release produced by compound 48/80, calcium-ionophore A23187 and basic peptide 401; format: cell-based; conditions: comparison of IC50 with sanguinarine inhibited histamine release
mast cells [3] = conditions: release produced by compound 48/80, calcium-ionophore A23187, basic peptide 401; read-out: IC50, inhibition of histamine release; cited from earlier work
mast cells [4] = conditions: compound 48/80; read-out: IC50, compound 48/80 induced histamine release; cited from earlier work

SMILES: C[n+]1cc2c3c(ccc2c2ccc4cc5c(cc4c21)OCO5)OCO3 [Sanguinarine, sanguinarine]
- Histamine Release (%) (mast cells [1]; A23187 (1 µ M)): 21.1%
- Histamine Release (%) (mast cells [1]; Compound 48/80 (0.5 µ g/ml)): 15.4%
- Histamine Release (%) (mast cells [1]; Con A (10 µg/ml) in the presence of phosphatidylserine (10 µ g/ml)): 27.3%
- Histamine Release (%) (mast cells [1]; HRP (16 µ M)): 17.6%
- IC50 (mast cells [1]; Rattus norvegicus, Mast cell, 10 min, compound 48/80 (0.5 µ g/ml), 37°C, 10 minutes, Figure 1, read-out: IC50 (inhibition concentration), 48/80 induced histamine release from mast cells): ~2 µM
- inhibition at 5 µM (mast cells [1]; Rattus norvegicus, Mast cell, A23187 (1 µ M)): 63.4%
- inhibition at 5 µM (mast cells [1]; Rattus norvegicus, Mast cell, Compound 48/80 (0.5 µ g/ml)): 78.7%
- inhibition at 5 µM (mast cells [1]; Rattus norvegicus, Mast cell, Con A (10 µg/ml) in the presence of phosphatidylserine (10 µ g/ml)): 56.6%
- inhibition at 5 µM (mast cells [1]; Rattus norvegicus, Mast cell, HRP (16 µ M)): 69.4%
- inhibition at 5 µM (mast cells [1]; Rattus norvegicus, Mast cell, Triton X-100 (0.01 %)): -10.6%
- Histamine Release (%) (mast cells [1]; Triton X-100 (0.01 %)): 93.8%

SMILES: O=C(O)c1cc(=O)c2c(OCC(O)COc3cccc4oc(C(=O)O)cc(=O)c34)cccc2o1 [cromoglycate]
- times less active than sanguinarine (mast cells [2]): 10 to 100 times
- IC50 (mast cells [3]): 10 to 1000 µM

SMILES: C[C@]12CCC(=O)C=C1CC[C@@H]1[C@@H]2[C@@H](O)C[C@@]2(C)[C@H]1CC[C@]2(O)C(=O)CO [hydrocortisone]
- IC50 (mast cells [4]): 2100 µM

SMILES: COc1ccc2c(c1)c(CC(=O)O)c(C)n2C(=O)c1ccc(Cl)cc1 [indomethacin]
- IC50 (mast cells [4]): 75 µM

SMILES: O=C([O-])c1ccccc1O.[Na+] [sodium salicylate]
- IC50 (mast cells [4]): 1600 µM

SMILES: Cn1c(=O)c2[nH]cnc2n(C)c1=O [theophylline]
- times less active than sanguinarine (mast cells [2]): 10 to 100 times
- IC50 (mast cells [3]): 10 to 1000 µM

— patent EP0326628A1, “Method for inhibiting the release of histamine” (VIPONT PHARMACEUTICAL, INC., priority 1988, dated 1989)
